Entries after “also recorded” stand apart in the source; their conditions may differ. Read-outs that look alike come from different tables or passages of the source.
Legend:
human PARP1 = target: T1, human PARP1 (Homo sapiens, UniProt P09874); assay: PARP inhibitor assay (HT Fluorescent Homogeneous PARP Inhibition Assay Kit); type: biochemical; conditions: for L = PARP inhibition: score
T1 construct: purchased Trevigen
Method in brief: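 Compounds (10 μM final) incubated 30 min, room temperature, dark, with human PARP1, nicotinamide adenine dinucleotide and activated DNA. Fluorescent signal generated by 1 hr cycling with diaphorase and resazurin, then reaction stopped.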

human protein targets = conditions: PubChem database queries; cited from earlier work
[1] = tested on: PC12 cells expressing poly(Q)103-Htt-EGFP; assay: Poly(Q) toxicity & viability analysis (cellular model of Huntington's disease); type: cell-based, rat; conditions: for M = Huntington's poly-Q toxicity attenuation: score; for K = Huntington's poly-Q toxicity attenuation: summary score
Method in brief: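 Readout is CellTiter-Glo ATP content measured after 48 hrs. Cells are a PC12 line stably expressing inducible poly(Q)103-Htt-EGFP, where induction produces toxic aggregates.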

FOXO3 = assay: qPCR analysis of FOXO3-regulated genes; type: cell-based, human; conditions: for fold induction at 10 µM: Homo sapiens; for K = Sestrin induction: score
Method in brief: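 FOXO3 target-gene expression quantified by qPCR normalised to B2M, PPIA and GAPDH, in WI-38 cells after 24 h exposure to 10 μM compound. Some runs used cells first transfected 36 h with 10 nM FOXO3 or NRF2 siRNA and replated ~24 h before dosing.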

[2] = tested on: HTB-178 lung tumor cells (EGFR+, PIK3CA+, RB1−, TP53−); assay: Killing effects on HTB-178 tumor cells; type: cell-based, human; conditions: Assay 1(y); at 10 uM, 1st
WI-38 cells = conditions: no H2O2 stress, 10 uM; negative control 0.41% ± 0.23%
Method: WI-38 cells were seeded on 384-well plates for 24 hrs and then incubated with small molecules for 24 hrs. […] Images were collected on an INCell Analyzer 2000 (GE) and analyzed with the Developer software.

[3] = 24 h, Assay 10(m), at 10 uM, qPCR, read-out: Induction of FOXO3-regulated genes: GADD45A normalized fold-change
[4] = 10 μM, 24 hrs, WI-38 cells, qPCR, normalized to B2M, n = 4, read-out: GADD45A expression, normalized fold change (FOXO3-regulated gene)
[5] = WI-38 cells, 10 μM, 24 hrs, n=4, qPCR normalized by B2M, read-out: DDB1 Normalized fold change
[6] = WI-38 cells, 10 μM, 24 hrs, n=4, qPCR normalized by B2M, read-out: GADD45A Normalized fold change
[7] = WI-38 cells, 10 μM, 24 hrs, n=4, qPCR normalized by B2M, read-out: SESN1 Normalized fold change
[8] = fold change, qPCR, WI-38 cells, 10 μM, 24 hrs, read-out: Summary of effects on FOXO3-regulated genes: GADD45A
[9] = qPCR, WI-38 cells, 10 μM, n=4, 24 hrs, normalized by B2M, read-out: CAT Normalized fold change
[10] = qPCR, WI-38 cells, 10 μM, n=4, 24 hrs, normalized by B2M, read-out: SOD2 Normalized fold change
[11] = qPCR, WI-38 cells, 10 μM, n=4, 24 hrs, normalized by B2M, read-out: TXNIP Normalized fold change

T1 sequence (P09874 whole entry): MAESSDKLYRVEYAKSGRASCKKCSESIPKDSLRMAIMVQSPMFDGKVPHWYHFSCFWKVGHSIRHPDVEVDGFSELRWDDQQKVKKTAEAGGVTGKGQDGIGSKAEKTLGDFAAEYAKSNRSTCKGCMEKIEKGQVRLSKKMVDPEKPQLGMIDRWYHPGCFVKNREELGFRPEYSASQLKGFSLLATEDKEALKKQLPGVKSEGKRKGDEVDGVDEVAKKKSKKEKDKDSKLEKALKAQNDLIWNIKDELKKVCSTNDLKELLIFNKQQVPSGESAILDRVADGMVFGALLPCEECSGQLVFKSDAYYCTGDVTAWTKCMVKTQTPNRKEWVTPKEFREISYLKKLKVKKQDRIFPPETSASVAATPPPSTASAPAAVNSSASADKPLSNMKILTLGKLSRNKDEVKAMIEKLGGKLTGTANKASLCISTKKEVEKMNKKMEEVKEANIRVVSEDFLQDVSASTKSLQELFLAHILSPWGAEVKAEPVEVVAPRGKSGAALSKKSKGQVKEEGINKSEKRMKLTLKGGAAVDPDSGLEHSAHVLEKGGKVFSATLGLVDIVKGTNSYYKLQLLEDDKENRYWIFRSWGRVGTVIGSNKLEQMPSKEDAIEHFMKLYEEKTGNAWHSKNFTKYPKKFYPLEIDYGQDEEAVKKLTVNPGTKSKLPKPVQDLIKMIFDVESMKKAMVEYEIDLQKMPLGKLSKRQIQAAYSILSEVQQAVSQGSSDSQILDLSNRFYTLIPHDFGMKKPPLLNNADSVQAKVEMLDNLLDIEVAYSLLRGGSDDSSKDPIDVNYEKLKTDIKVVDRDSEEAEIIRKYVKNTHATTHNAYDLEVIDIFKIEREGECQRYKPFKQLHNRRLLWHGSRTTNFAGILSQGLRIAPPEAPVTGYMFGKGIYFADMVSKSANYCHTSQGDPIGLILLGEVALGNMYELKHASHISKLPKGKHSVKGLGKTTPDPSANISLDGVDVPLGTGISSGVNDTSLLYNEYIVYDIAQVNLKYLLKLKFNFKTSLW

## O=C(/C(=C/c1ccc(Cl)cc1)c1nc2ccccc2[nH]1)c1ccccc1 [Gr-4D]
Human PARP1
  L = PARP inhibition: 0
Human protein targets
  Potential targets: human protein targets (confirmed): ABHD5, ATXN2, BARD1, BRCA, CFTR, CHRM1, CHRM4, CYP2C9, CYP3A4,; also recorded: DRD3, EPAS1, GMNN, GPR183, HIF1A, HNF4A, HTT, IDH1, IL1B, MAPT,; also recorded: MDM2, MDM4, MITF, NFKB1, NOD1, NOD2, PLIN5, RELA, SMAD3, TDP1,; also recorded: TNF, TNFRSF10B, TUBB
[1]
  M = Huntington's poly-Q toxicity attenuation: 0
  K = Huntington's poly-Q toxicity attenuation: 0
FOXO3; 10 μM, 24 hrs, WI-38
  Induction of at least two of five FOXO3-regulated genes (SOD2, GADD45A, CAT, DDB1, TXNIP): could induce both FOXO3- and NRF2-regulated genes; also recorded: significant induction; also recorded: significant, induction
FOXO3; 10 μM, 24 hrs, WI-38 cells, qPCR, normalized to B2M, n = 4
  SOD2 expression, normalized fold change (FOXO3-regulated gene): SOD2 1.20, fold
FOXO3; 2-point score
  E = Potential FOXO3 Activation: 0
FOXO3; 24 h, Assay 10(m), at 10 uM, qPCR, read-out: Induction of FOXO3-regulated genes: CAT normalized fold-change
  fold induction at 10 µM: 1.37
FOXO3; 24 h, Assay 10(m), at 10 uM, qPCR, read-out: Induction of FOXO3-regulated genes: DDB1 normalized fold-change
  fold induction at 10 µM: 1.41
FOXO3; [3]
  fold induction at 10 µM: 2.11
FOXO3; 24 h, Assay 10(m), at 10 uM, qPCR, read-out: Induction of FOXO3-regulated genes: SESN1 normalized fold-change
  fold induction at 10 µM: 2.16
FOXO3; 24 h, Assay 10(m), at 10 uM, qPCR, read-out: Induction of FOXO3-regulated genes: SOD2 normalized fold-change
  fold induction at 10 µM: 1.2
FOXO3; WI-38, 24 h, read-out: SESN1 expression
  fold induction at 10 µM: > 1.5
FOXO3; 10 μM, 24 hrs, WI-38 cells, qPCR, normalized to B2M, n = 4, read-out: CAT expression, normalized fold change (FOXO3-regulated gene)
  fold induction at 10 µM: 1.37
FOXO3; 10 μM, 24 hrs, WI-38 cells, qPCR, normalized to B2M, n = 4, read-out: DDB1 expression, normalized fold change (FOXO3-regulated gene)
  fold induction at 10 µM: 1.41
FOXO3; [4]
  fold induction at 10 µM: 2.11
FOXO3; 10 μM, 24 hrs, WI-38 cells, qPCR, normalized to B2M, n = 4, read-out: SESN1 expression, normalized fold change (FOXO3-regulated gene)
  fold induction at 10 µM: 2.16
FOXO3; [5]
  fold induction at 10 µM: 1.41
FOXO3; [6]
  fold induction at 10 µM: 2.11
FOXO3; [7]
  fold induction at 10 µM: 2.16
FOXO3; fold change, qPCR, WI-38 cells, 10 μM, 24 hrs, read-out: Summary of effects on FOXO3-regulated genes: CAT
  fold induction at 10 µM: 1.37
FOXO3; fold change, qPCR, WI-38 cells, 10 μM, 24 hrs, read-out: Summary of effects on FOXO3-regulated genes: DDB1
  fold induction at 10 µM: 1.41
FOXO3; [8]
  fold induction at 10 µM: 2.11
FOXO3; fold change, qPCR, WI-38 cells, 10 μM, 24 hrs, read-out: Summary of effects on FOXO3-regulated genes: SESN1
  fold induction at 10 µM: 2.16
FOXO3; [9]
  fold induction at 10 µM: 1.37
FOXO3; [10]
  fold induction at 10 µM: 1.2
FOXO3; [11]
  fold induction at 10 µM: 1.09
FOXO3; fold change, qPCR, WI-38 cells, 10 μM, 24 hrs
  Summary of effects on FOXO3-regulated genes: SOD2: SOD2 1.20,
FOXO3
  K = Sestrin induction: 1
FOXO3; summary score
  E = Potential FOXO3 Activation: 0
[2]
  Potential killing effects on HTB-178 tumor cells, 1st: YES;
WI-38 cells
  Percentage of propidium iodide-positive dead cells (no H2O2 stress treatment), at 10 uM: 0.42% ± 0.15%,

## Cc1cc(C)c(C(=O)/C=C/c2ccccc2F)c(O)n1 [O18]
Human PARP1
  L = PARP inhibition: 0
Human protein targets
  Potential targets: human protein targets (confirmed): JAK2
[1]
  M = Huntington's poly-Q toxicity attenuation: 0
  K = Huntington's poly-Q toxicity attenuation: 0
FOXO3; 2-point score
  E = Potential FOXO3 Activation: 0
FOXO3; 24 h, Assay 10(m), at 10 uM, qPCR, read-out: Induction of FOXO3-regulated genes: TXNIP normalized fold-change
  fold induction at 10 µM: 0.3
FOXO3; 10 μM, 24 hrs, WI-38 cells, qPCR, normalized to B2M, n = 4, read-out: TXNIP expression, normalized fold change (FOXO3-regulated gene)
  fold induction at 10 µM: 0.3
FOXO3; [5]
  fold induction at 10 µM: 1.33
FOXO3; [6]
  fold induction at 10 µM: 0.861
FOXO3; [7]
  fold induction at 10 µM: 1.06
FOXO3; fold change, qPCR, WI-38 cells, 10 μM, 24 hrs, read-out: Summary of effects on FOXO3-regulated genes: TXNIP
  fold induction at 10 µM: 0.3
FOXO3; [9]
  fold induction at 10 µM: 1.47
FOXO3; [10]
  fold induction at 10 µM: 1.04
FOXO3; [11]
  fold induction at 10 µM: 0.297
FOXO3
  K = Sestrin induction: 0
FOXO3; summary score
  E = Potential FOXO3 Activation: 0
WI-38 cells
  Percentage of propidium iodide-positive dead cells (no H2O2 stress treatment), at 10 uM: 0.36% ± 0.16%,

## CC(C)(C)c1ccc(OCC(=O)Nc2ccc3c4c(cccc24)C(=O)NC3=O)cc1 [O22]
Human PARP1; 10 μM, in vitro
  Inhibition of PARP1: confirmed as PARP inhibitors; also recorded: inhibitors of PARP1
Human PARP1
  L = PARP inhibition: 1
Human protein targets
  Potential targets: human protein targets (confirmed): APOBEC3F, CFTR, NCOA3, OPRD1, OPRM1, PPARG, S1PR4, TDP1
[1]
  M = Huntington's poly-Q toxicity attenuation: 0
  K = Huntington's poly-Q toxicity attenuation: 0
FOXO3; 2-point score
  E = Potential FOXO3 Activation: 0
FOXO3; [3]
  fold induction at 10 µM: 1.23
FOXO3; [4]
  fold induction at 10 µM: 1.23
FOXO3; [5]
  fold induction at 10 µM: 1.04
FOXO3; [6]
  fold induction at 10 µM: 1.23
FOXO3; [7]
  fold induction at 10 µM: 1.29
FOXO3; [8]
  fold induction at 10 µM: 1.23
FOXO3; [9]
  fold induction at 10 µM: 1.04
FOXO3; [10]
  fold induction at 10 µM: 1.02
FOXO3; [11]
  fold induction at 10 µM: 0.742
FOXO3
  K = Sestrin induction: 0
FOXO3; summary score
  E = Potential FOXO3 Activation: 0
WI-38 cells
  Percentage of propidium iodide-positive dead cells (no H2O2 stress treatment), at 10 uM: 0.37% ± 0.14%,
